Experimental data: US9359196B2, “Antiproliferative compositions comprising curcumin analogs and methods of producing and using same” (The Board of Regents of the University of Oklahoma, priority 2009, dated 2016)

Experiments:
[1] = system: Human lung adenocarcinoma cell line NCI-H441; test: In vitro anti-proliferative activity in H441 cells (hexosaminidase), Example 2; assay type: cell-based
Protocol: Human lung adenocarcinoma cell line NCI-H441 (ATCC # HTB-174) and normal lung fibroblasts LL-24 (ATCC #CCL-151) were obtained from American Type Culture Collection (Manassas, Va.). The cells were maintained at 37° C. with 5% CO2 in RPMI 1640 medium (Invitrogen, Carlsbad, Calif.). The medium was supplemented with 10% heat-inactivated fetal bovine serum and 50 μg/ml of gentamicin (GIBCO Laboratories, Grand Island, N.Y.). For cell proliferation assay, the cells were seeded in 96-well flat-bottom tissue culture plates at a density of 0.5−1×10^4 cells per well. The cells were allowed to adhere and grow overnight, followed by treatment with CLEFMA or CLEFMA-liposomes. The concentration of CLEFMA was maintained in the range of 0.1-25 μM in 100 μl of RPMI 1640 medium. For comparison, the cells were also treated with 1 and 10 μM natural curcumin and EF24. EF24 is a potent synthetic curcuminoid and a close analog of CLEFMA [Adams et al., 2004]. All solutions of plain drugs were made in dimethylsulfoxide (DMSO). The concentration of DMSO in the treatment medium was maintained at 0.1%. The control wells received equivalent amounts of DMSO or phospholipid-matched control liposomes. Inhibition of cell proliferation was determined by measuring a decrease in hexosaminidase activity as described by Landegren [Landegren, 1984]. Para-nitrophenol-N-acetyl-beta-D-glucosaminide (60 μl per well) was used as the substrate for the hexosaminidase enzyme. The results of hexosaminidase assay were also confirmed by visualization of cultured cells under a microscope.

[2] = Solubility in solvents; assay type: physicochemical
Source text: The goal was to synthesize compounds that can be inserted into lipid carriers, such as liposomes. […] The retention of activity by compounds with 12-14 carbon unsaturated a chain modification is encouraging, for it enables the incorporation of these compounds in a lipid carrier system. […] This appears to be the first report where piperidinyl nitrogen of chalcones has been modified with lipid chains.

[3] = system: lung adenocarcinoma cell line H441; test: Cell proliferation (hexosaminidase assay) in lung adenocarcinoma H441 cells, Example 1; assay type: cell-based, human; details: Homo sapiens, NCI-H441, 24 h of treatment, 1-100 μM tested, fitted plot, read-out: IC50 value
Protocol: Cell Proliferation Studies: In order to assess the anti-proliferative activity of the synthesized compounds, an in vitro cell culture system of lung adenocarcinoma cell line H441 was used. The cell detachment and anti-proliferative activity was measured as a decrease in hexosaminidase enzyme activity associated with remainder of the adhered cells. [Landegren, 1984] […] The concentration versus cell proliferation plots were analyzed by an exponential fit (Table 1). The results were compared with the anti-proliferative activity of compound 1.
Cell Culture and drug treatment: Human lung adenocarcinoma cell line NCI-H441 (ATCC Number: HTB-174) was obtained from the American Type Culture Collection (Manassas, Va.). H441 cells were maintained at 37° C. with 5% CO2 in McCoy's 5A Medium (Invitrogen, Carlsbad, Calif.) supplemented with 5% heat-inactivated fetal bovine serum (FBS). All media contained gentamicin at 50 μg/ml (GIBCO Laboratories, Grand Island, N.Y.). Other cells lines (PANC-1, MiaPaCa-2 and PC-3) were also similarly maintained, except that the cell culture medium was RPMI 1640 instead of McCoy's.
To evaluate the anti-proliferative activity of synthesized bis(2-fluorobenzylidene)-4-piperidone and its derivatives, the cells were seeded in 96-well flat-bottom tissue culture plates at a density of 10×10^3 cells per well. The cells were allowed to attach and grow overnight. The test compounds were solubilized in dimethyl sulfoxide (DMSO), filtered through 0.2 μm nylon filter and added to cells at 1, 10, 25 and 100 μM concentrations in culture medium supplemented with 5% FBS. The DMSO concentration was maintained at 0.1% per well. Control wells received equivalent volume of DMSO without any test compounds. The cells were allowed to remain in the treatment medium for 24, 48 and 72 hours.
Cell Proliferation: The total number of cells after the treatment period was estimated by the hexosaminidase assay. [Landegren, 1984] Briefly, the medium was removed and hexosaminidase substrate solution in citrate buffer pH 5 (7.5 mM), […] (Calbiochem, San Diego, Calif.) was added at 60 μl per well. The plate was incubated at 37° C. in 100% humidity for 30 minutes, before stopping the reaction with 90 μl of 50 mM glycine containing 5 mM of EDTA (pH 10.4). The absorbance was measured at 405 nm. The experiments were conducted in triplicate, and repeated at least twice. The data were analyzed as percent of control, where the control wells were treated with equivalent amounts of DMSO alone, and the analyzed data was presented as average±standard error of mean. The differences among mean values were deemed significant at p<0.05.
For IC50 calculations, a plot between the drug concentration and hexosaminidase activity was generated and the data was fitted either linearly or exponentially. The best fit was used for further processing of data.

[4] = system: H441 cells; test: Transmission electron microscopy of treated H441 cells (autophagy); assay type: cell-based, human; details: 24 hour treatment, 1 and 10 μM
Protocol: Transmission Electron Microscopy (TEM): TEM was performed after 24 hour treatment with 1 and 10 μM of compound 1 or compound 29 (CLEFMA). The cells were fixed in 0.1M sodium cacodylate buffer containing 4% paraformaldehyde (PFA) and 2% glutaraldehyde for 4 h at room temperature. The samples were post-fixed in 1% osmium tetroxide for 1.5 h and washed with 0.1M sodium cacodylate buffer, followed by dehydration in an ethanol series of 50%, 60%, 75%, 85%, and 95% for 15 minutes each. The cells were washed twice in 100% Ethanol and passed through a series of epon-araldite (6.2 g epon+4.4 g araldite+12.4 g of dodecenyl succinic anhydride+0.8 g N,N-dimethylbenzylamine) solution in ethanol, [Matsko et al., 2005] before embedding the cells in epon-araldite resin. Finally, 100 nm sections were cut using a microtome, and the sections were placed on glow-discharged 300 mesh Copper grids. The ultrasections were stained with Sato's lead (mixture of calcinated lead citrate, lead nitrate, lead acetate and sodium citrate), and observed by a Hitachi H-7600 Transmission Electron Microscope at 2500× (Oklahoma Medical Research Foundation Imaging and core facility, Oklahoma City).

[5] = system: H441 cells; test: Monodansylcadaverine fluorescence microscopy of autophagosomes in H441 cells; assay type: cell-based, human
Protocol: Monodansylcadaverine (MDC) is an autofluorescent marker for autophagic vacuoles. [Biederbick et al., 1995] It was found the emergence of intense MDC-fluorescence in the treated cells. The fluorescence vanished when the cells were treated with 3-methyl adenine (3-MA). […] [Seglen et al., 1982]

N[C@@H](CCC(=O)N[C@@H](CS)C(=O)NCC(=O)O)C(=O)O [Glutathione, glutathione]
anti-proliferative activity in H441 cells [1]: not anti-proliferative by itself

CCCCCCCCCCCCCCCCCC(=O)N1CC(=Cc2ccccc2F)C(=O)C(=Cc2ccccc2F)C1 [Compound 25, 3,5-Bis-(2-fluorobenzylidene)-1-octadecanoyl-4-piperidone]
solubility in solvents [2]: insoluble in all common solvents except chloroform | melting point: 70 to 71 °C

O=C1C(=Cc2ccccc2F)CNCC1=Cc1ccccc1F [Compound 1, 3,5-Bis(2-fluorobenzylidene)-4-piperidone, reference compound]
IC50 [3]: 44 µM | change in cellular architecture (TEM) [4]: induced a substantial change in cellular architecture | autophagosome formation (MDC fluorescence) [5]: appearance of intracellular vacuoles or autophagosomes
